According to patent US20260325653A1, “HETEROBIFUNCTIONAL SMALL MOLECULES THAT DEUBIQUITINYLATE AND STABILIZE TARGET PROTEINS BY RECRUITING USP7” (ICAHN SCHOOL OF MEDICINE AT MOUNT SINAI, priority 2023, published 2026):

System: CFTR mRNA
Assay: RT-qPCR analysis of CFTR mRNA levels in CFBE41o− 4.7 ΔF508-CFTR cells
Type: cell-based, human
Conditions: 10 μM, 24 h

Compound: Cc1ccc(NC(=O)C2(c3ccc4c(c3)OC(F)(F)O4)CC2)nc1-c1cccc(C(=O)NCCCCCCCCCNC(=O)CNCc2ccc(-c3c4ncn(CC5(O)CCN(C(=O)C[C@@H](C)c6ccccc6)CC5)c(=O)c4nn3C)cc2)c1 [MS6869, (R)-3-(6-(1-(2,2-difluorobenzo[d][1,3]dioxol-5-yl)cyclopropane-1-carboxamido)-3-methylpyridin-2-yl)-N-(9-(2-((4-(6-((4-hydroxy-1-(3-phenylbutanoyl)piperidin-4-yl)methyl)-2-methyl-7-oxo-6,7-dihydro-2H-pyrazolo[4,3-d]pyrimidin-3-yl)benzyl)amino)acetamido)nonyl)benzamide]
- mRNA levels of CFTR: do not affect the mRNA levels of CFTR
